Drawing on the NIST ThermoML archive (doi:10.1021/je700705d), this text covers Normal boiling temperature and refractive index for 2 compounds.

For data set [1] the following is noted: Liquid; Ebulliometric method (Recirculating still).
A short description of data set [2]: refractive index (Na D-line) (dimensionless). Particulars: 293.15 K; 101.33 kPa; Liquid; Standard Abbe refractometry.

± gives the expanded uncertainty stated by the source.

For the compound `CC(O)C(C)O` (centres undefined) [2,3-butanediol], the Normal boiling temperature in data set [1] amounted to 181.06 ± 0.2 °C. The refractive index in data set [2] was 1.4375 ± 0.0007.

`CCCCOC(C)=O` [butyl ethanoate]: the Normal boiling temperature in data set [1] stood at 125.96 ± 0.2 °C. For the same compound, the refractive index in data set [2] worked out at 1.3941 ± 0.0007.

One may read the refractive index as a measure of how strongly the sample bends light.
